What was measured:
[1] = target: T1, Beta-secretase 1 (Homo sapiens, UniProt P56817); assay: Inhibition of BACE1 expressed in HEK293 cells at 100 uM; format: cell-based
[2] = target: T1, Beta-secretase 1; assay: Inhibition of human recombinant BACE1 at 2 uM
[3] = target: T1, Beta-secretase 1; assay: Inhibition of human recombinant BACE1 at 0.2 uM
[4] = target: T1, Beta-secretase 1; assay: Inhibition of human recombinant BACE1

T1 sequence (P56817 whole entry): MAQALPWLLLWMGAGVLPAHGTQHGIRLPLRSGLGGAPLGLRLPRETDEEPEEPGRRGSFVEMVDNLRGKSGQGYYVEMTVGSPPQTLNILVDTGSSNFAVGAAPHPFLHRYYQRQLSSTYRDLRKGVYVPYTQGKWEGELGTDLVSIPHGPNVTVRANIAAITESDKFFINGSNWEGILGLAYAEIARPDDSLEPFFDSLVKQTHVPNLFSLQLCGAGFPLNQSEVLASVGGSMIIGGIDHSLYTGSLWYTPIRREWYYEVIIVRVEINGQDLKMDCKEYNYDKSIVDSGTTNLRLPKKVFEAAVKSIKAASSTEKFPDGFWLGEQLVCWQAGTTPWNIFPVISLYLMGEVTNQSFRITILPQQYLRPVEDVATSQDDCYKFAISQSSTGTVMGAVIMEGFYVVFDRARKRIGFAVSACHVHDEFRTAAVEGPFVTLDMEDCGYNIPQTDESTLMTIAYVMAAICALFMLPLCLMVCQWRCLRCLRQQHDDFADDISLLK

| inhibition [1] [%] | inhibition [2] [%] | inhibition [3] [%] | IC50 [4] [nM] | SMILES |
| --- | --- | --- | --- | --- |
| 29 | 75 | – | – | CC(C)C[C@H](NC(=O)[C@@H](NC(=O)[C@@H](N)CNC(=O)c1ccccc1O)C(C)C)C(=O)N[C@@H](Cc1ccccc1)[C@@H](O)C(=O)Nc1cccc(C(=O)O)c1 |
| 0 | 89 | 75 | – | CC(C)C[C@H](NC(=O)[C@@H](NC(=O)[C@@H](N)CNC(=O)c1cccc(O)c1O)C(C)C)C(=O)N[C@@H](Cc1ccccc1)[C@@H](O)C(=O)Nc1cccc(C(=O)O)c1 |
| 4 | 82 | 38 | – | CC(C)C[C@H](NC(=O)[C@@H](NC(=O)[C@@H](N)CNC(=O)c1ccoc1)C(C)C)C(=O)N[C@@H](Cc1ccccc1)[C@@H](O)C(=O)Nc1cccc(C(=O)O)c1 |
| – | 13 | – | – | CC(C)C[C@H](NC(=O)[C@@H](NC(=O)[C@@H](N)CNC(=O)[C@H]1CC(=O)NC(=O)N1)C(C)C)C(=O)N[C@@H](Cc1ccccc1)[C@@H](O)C(=O)Nc1cccc(C(=O)O)c1 |
| 20 | 86 | 59 | – | CC(C)C[C@H](NC(=O)[C@@H](NC(=O)[C@@H](N)CNC(=O)c1ccc(O)cc1O)C(C)C)C(=O)N[C@@H](Cc1ccccc1)[C@@H](O)C(=O)Nc1cccc(C(=O)O)c1 |
| 76 | 99 | 82 | – | CC(C)C[C@H](NC(=O)[C@@H](NC(=O)[C@@H](N)CNC(=O)c1nc(O)nc(O)c1F)C(C)C)C(=O)N[C@@H](Cc1ccccc1)[C@@H](O)C(=O)Nc1cccc(C(=O)O)c1 |
| 58 | 98 | 84 | – | CC(C)C[C@H](NC(=O)[C@@H](NC(=O)[C@@H](N)CNC(=O)c1cc(O)ccc1O)C(C)C)C(=O)N[C@@H](Cc1ccccc1)[C@@H](O)C(=O)Nc1cccc(C(=O)O)c1 |
| – | – | – | 3.3 | CC(C)[C@H](NC(=O)[C@@H](N)CNC(=O)c1nnn[nH]1)C(=O)N[C@@H](CC1CCCCC1)C(=O)N[C@@H](Cc1ccccc1)[C@@H](O)C(=O)Nc1cccc(-c2nnn[nH]2)c1 |
| – | 69 | – | – | CC(C)C[C@H](NC(=O)[C@@H](NC(=O)[C@@H](N)CNC(=O)c1cc[nH]c1)C(C)C)C(=O)N[C@@H](Cc1ccccc1)[C@@H](O)C(=O)Nc1cccc(C(=O)O)c1 |
| 69 | 94 | 60 | – | CC(C)C[C@H](NC(=O)[C@@H](NC(=O)[C@@H](N)CNC(=O)c1cc(O)cc(O)c1)C(C)C)C(=O)N[C@@H](Cc1ccccc1)[C@@H](O)C(=O)Nc1cccc(C(=O)O)c1 |
| 57 | 91 | 49 | – | CC(C)C[C@H](NC(=O)[C@@H](NC(=O)[C@@H](N)CNC(=O)c1cccc(O)c1)C(C)C)C(=O)N[C@@H](Cc1ccccc1)[C@@H](O)C(=O)Nc1cccc(C(=O)O)c1 |
| 46 | 90 | 54 | – | CC(C)C[C@H](NC(=O)[C@@H](NC(=O)[C@@H](N)CNC(=O)c1cc(O)nc(O)n1)C(C)C)C(=O)N[C@@H](Cc1ccccc1)[C@@H](O)C(=O)Nc1cccc(C(=O)O)c1 |
| 69 | 99 | 92 | – | CC(C)[C@H](NC(=O)[C@@H](N)CNC(=O)c1cc(O)ccc1O)C(=O)N[C@@H](CC1CCCCC1)C(=O)N[C@@H](Cc1ccccc1)[C@@H](O)C(=O)Nc1cccc(-c2nn[nH]n2)c1 |
| 84 | 100 | 97 | – | CC(C)[C@H](NC(=O)[C@@H](N)CNC(=O)c1[nH]c(=O)[nH]c(=O)c1F)C(=O)N[C@@H](CC1CCCCC1)C(=O)N[C@@H](Cc1ccccc1)[C@@H](O)C(=O)Nc1cccc(-c2nn[nH]n2)c1 |
| – | – | – | 5.6 | CC(C)[C@H](NC(=O)[C@@H](N)CNC(=O)c1[nH]c(=O)[nH]c(=O)c1F)C(=O)N[C@@H](CC1CCCCC1)C(=O)N[C@@H](Cc1ccccc1)[C@@H](O)C(=O)Nc1cccc(-c2nnn[nH]2)c1 |
| 65 | 99 | 93 | – | CC(C)C[C@H](NC(=O)[C@@H](NC(=O)[C@@H](N)CNC(=O)c1cc(O)ccc1O)C(C)C)C(=O)N[C@@H](Cc1ccccc1)[C@@H](O)C(=O)Nc1cccc(-c2nn[nH]n2)c1 |
| 73 | 99 | 72 | – | CC(C)C[C@H](NC(=O)[C@@H](NC(=O)[C@@H](N)CNC(=O)c1nc(O)nc(O)c1I)C(C)C)C(=O)N[C@@H](Cc1ccccc1)[C@@H](O)C(=O)Nc1cccc(C(=O)O)c1 |
| – | 40 | – | – | CC(C)C[C@H](NC(=O)[C@@H](NC(=O)[C@@H](N)CNC(=O)[C@@H]1CC(=O)NC(=O)N1)C(C)C)C(=O)N[C@@H](Cc1ccccc1)[C@@H](O)C(=O)Nc1cccc(C(=O)O)c1 |
| 59 | 100 | 98 | – | CC(C)[C@H](NC(=O)[C@@H](N)CNC(=O)c1nn[nH]n1)C(=O)N[C@@H](CC1CCCCC1)C(=O)N[C@@H](Cc1ccccc1)[C@@H](O)C(=O)Nc1cccc(-c2nn[nH]n2)c1 |

| SMILES | inhibition [1] [%] | inhibition [2] [%] | inhibition [3] [%] | IC50 [4] [nM] |
| --- | --- | --- | --- | --- |
| CC(C)C[C@H](NC(=O)[C@@H](NC(=O)[C@@H](N)CNC(=O)c1[nH]c(=O)[nH]c(=O)c1F)C(C)C)C(=O)N[C@@H](Cc1ccccc1)[C@@H](O)C(=O)Nc1cccc(-c2nn[nH]n2)c1 | 63 | 100 | 98 | – |
| CC(C)C[C@H](NC(=O)[C@@H](NC(=O)[C@@H](N)CNC(=O)c1[nH]c(=O)[nH]c(=O)c1F)C(C)C)C(=O)N[C@@H](Cc1ccccc1)[C@@H](O)C(=O)Nc1cccc(-c2nnn[nH]2)c1 | – | – | – | 6.5 |
| CC(C)C[C@H](NC(=O)[C@@H](NC(=O)[C@@H](N)CNC(=O)c1nn[nH]n1)C(C)C)C(=O)N[C@@H](Cc1ccccc1)[C@@H](O)C(=O)Nc1cccc(-c2nn[nH]n2)c1 | 66 | 100 | 98 | – |

From ChEMBL document CHEMBL1145305, “beta-Secretase inhibitors: modification at the P4 position and improvement of inhibitory activity in cultured cells” (Bioorg Med Chem Lett, 2006)
